22 molecules from patent publication US10245847B2, “Reaction solution and ink jet recording method” (Seiko Epson Corporation, priority 2016, dated 2019) can be followed below.

A short description of data set [1]: log P value (water octanol distribution coefficient) of organic solvents. The text has this: Here, regarding several organic solvents, a log P value (water octanol distribution coefficient) will be described below. […] Note that, numbers in parentheses indicate log P values.
Here, “log P value” means an index indicating the hydrophobicity of the compound. The log P value indicates the ratio of the solutes distributed in these two layers in the octanol/water system. In other words, the larger the log P value of the solute is, the higher the hydrophobicity is, and it dissolves well in the octanol phase. Further, the fact that the log P values of the two kinds of substances are approximate means that the hydrophobicity of each is similar. The log P value can be obtained by, for example, a flask shaking method in which a solute and two kinds of solvents are actually put into a flask and are stirred well, and an HPLC method using high performance liquid chromatography (HPLC).

Data set [2] can be described thus: degree of solubility with respect to an aqueous solution having a concentration of 2-pyrrolidone of 20% by mass. Conditions: 20% by mass 2-pyrrolidone aqueous solution, 25° C.
[3] abbreviates: LogP, Table 2, organic solvents of the reaction solution.
Setting [4] is: LogP, Table 3, organic solvents of the reaction solution.

Some results are limits rather than exact numbers.

Take `CCC(O)CO` (stereo not drawn) [1,2-butanediol]: the logP (in general, the decadic logarithm of the partition coefficient of the neutral form, usually between octanol and water) in data set [1] (octanol/water) came out at 0.06. The “Solubility to 2-pyrrolidone aqueous solution” value (“Solubility” below) in data set [2] (Table 1) is ≥1%.

`COC(C)CCO` (stereo not drawn) [3-methoxy-1-butanol] yielded a logP in data set [1] of 0.07. For the same molecule, the “Solubility” value in data set [2] (Table 2) and in data set [2] (Table 3) was ≥1% each time.

Regarding `COC(C)(C)CCO` [3-methoxy-3-methylbutanol], the logP in data set [1] was -0.63.

Consider `COCCC(=O)N(C)C` [3-methoxy-N,N-dimethyl propanamide], for which the log partition coefficient (LogP) (as a rule, the decadic logarithm of the partition coefficient of the neutral form, usually between octanol and water) in data set [1] is 0.73.

For the molecule `CC(=O)OCCOC(C)=O` [Ethylene glycol diacetate], in data set [1], the LogP is reported as 0.40 and the logP stood at 0.4.

Regarding `OCC(O)CO` [Glycerin], the LogP in data set [1] is reported as −1.76.

The molecule `CCC(=O)N(C)C` [N,N-dimethyl propionamide] registered a logP in data set [1] of 0.46. For the same molecule, in data set [2] (Table 3), the “Solubility” value is reported as ≥1%.

In data set [1], `CCCCOCCOCCOCCCC` [diethylene glycol di-n-butyl ether] returned a LogP of 1.92 and a log partition coefficient (logP) of 1.92.

`CCOCCOCCOC` [diethylene glycol ethyl methyl ether] showed a logP in data set [1] of 0.69. Moreover, the “Solubility” value in data set [2] (Table 2) and in data set [2] (Table 3) was ≥1% each time.

`CCCCOCCOCCO` [diethylene glycol monobutyl ether] registered a logP in data set [1] of 1.19.

Turning to `COCCOCCO` [diethylene glycol monomethyl ether], the logP in data set [1] (setting [3]) and in data set [1] (setting [4]) was -1.18 each time. For the same molecule, the “Solubility” value in data set [2] (Table 2) and in data set [2] (Table 3) was ≥1% each time.

`CCCCCCOCCO` [ethylene glycol mono-n-hexyl ether] returned a lipophilicity (logP) in data set [1] of 1.57. In addition, the “Solubility” value in data set [2] (Table 2) and in data set [2] (Table 3) was ≥1% throughout.

Consider `CCCCOCCOC(C)=O` [ethylene glycol monobutyl ether acetate], for which the lipophilicity (logP) in data set [1] (octanol/water) stood at 1.79. Also, the “Solubility” value in data set [2] (Table 2) and in data set [2] (Table 3) was ≥1% in each case.

`CC(=O)OCC(C)OC(C)=O` (stereo not drawn) [propylene glycol diacetate] showed a logP in data set [1] of 0.74.

Take `CCC(=O)OCC(C)OC(=O)CC` (stereo not drawn) [propylene glycol dipropionate]: the logP in data set [1] was found to be 1.76.

Molecule `CCCCOCC(C)O` (stereo not drawn) [propylene glycol monobutyl ether] yielded a log partition coefficient (logP) in data set [1] of 1.19. For the same molecule, the “Solubility” value in data set [2] (Table 2) and in data set [2] (Table 3) was ≥1% throughout.

Consider `CCCOCC(C)O` (stereo not drawn) [propylene glycol monopropyl ether], for which the logP in data set [1] is -0.81.

With `CC(O)CO` (stereo not drawn) [propylene glycol], the logP in data set [1] is -1.4.

Consider `COCCOCCOCCOC` [triethylene glycol dimethyl ether], for which the logP in data set [1] is -0.67.

For the molecule `CCCCOCCOCCOCCO` [triethylene glycol monobutyl ether], the logP in data set [1] amounted to 0.51.

As to `O=C1CCCO1` [γ-butyrolactone], the logP in data set [1] (setting [3]) was -0.64; in data set [1] (setting [4]) it was -0.64; in data set [1] (log P value (water octanol distribution coefficient), octanol/water), -0.64. In addition, the “Solubility” value in data set [2] (Table 2) and in data set [2] (Table 3) was ≥1% each time.

polyethylene glycol monomethyl ether: the LogP in data set [1] was 0.80. The “Solubility” value in data set [2] (Table 2) and in data set [2] (Table 3) was ≥1% throughout.
